Source: patent publication US5556744A, “Methods and compositions for diagnosing and treating certain HIV infected patients” (The Trustees of the University of Pennsylvania, priority 1994, dated 1996)

Test system: maternal HIV+ sera (antibodies)
Assay: RIA / ELISA binding of maternal HIV+ sera to gp120 and gp41 peptides (Example 3)
Design: species or system human
In short: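 Maternal sera, diluted 1:50 and 1:500, were bound overnight at 4°C to peptides immobilized at 10 μg/ml (pH 9.6 carbonate) and blocked with 1% BSA. Read-out was ¹²⁵I-labelled anti-human IgG counts or HRP-TMB OD450. Signal with peptide minus without was expressed relative to seronegative serum.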

PQEVVLVNVTGENFNM [Peptide 96]
Binding of maternal sera to peptide (in words) (Example 3): No binding | Binding of maternal HIV+ serum to peptide (sera/NHS ratio) (Serum No. 1, Non-Transmission Group): - (specific OD450 or cpm of sera sample binding to peptide divided by the specific OD450 or cpm of NHS sample binding to peptide, which value is less than 2) | Binding of maternal HIV+ serum to peptide (sera/NHS ratio) (Serum No. 2, Non-Transmission Group): - (specific OD450 or cpm of sera sample binding to peptide divided by the specific OD450 or cpm of NHS sample binding to peptide, which value is less than 2) | Binding of maternal HIV+ serum to peptide (sera/NHS ratio) (Serum No. 3, Non-Transmission Group): - (specific OD450 or cpm of sera sample binding to peptide divided by the specific OD450 or cpm of NHS sample binding to peptide, which value is less than 2) | Binding of maternal HIV+ serum to peptide (sera/NHS ratio) (Serum No. 4, Transmission Group): - (specific OD450 or cpm of sera sample binding to peptide divided by the specific OD450 or cpm of NHS sample binding to peptide, which value is less than 2) | Binding of maternal HIV+ serum to peptide (sera/NHS ratio) (Serum No. 5, Transmission Group): - (specific OD450 or cpm of sera sample binding to peptide divided by the specific OD450 or cpm of NHS sample binding to peptide, which value is less than 2) | Binding of maternal HIV+ serum to peptide (sera/NHS ratio) (Serum No. 6, Non-Transmission Group): - (specific OD450 or cpm of sera sample binding to peptide divided by the specific OD450 or cpm of NHS sample binding to peptide, which value is less than 2) | Binding of maternal HIV+ serum to peptide (sera/NHS ratio) (Serum No. 7, Non-Transmission Group): - (specific OD450 or cpm of sera sample binding to peptide divided by the specific OD450 or cpm of NHS sample binding to peptide, which value is less than 2) | Binding of maternal HIV+ serum to peptide (sera/NHS ratio) (Serum No. 8, Non-Transmission Group): - (specific OD450 or cpm of sera sample binding to peptide divided by the specific OD450 or cpm of NHS sample binding to peptide, which value is less than 2) | Binding of maternal HIV+ serum to peptide (sera/NHS ratio) (Serum No. 9, Non-Transmission Group): - (specific OD450 or cpm of sera sample binding to peptide divided by the specific OD450 or cpm of NHS sample binding to peptide, which value is less than 2) | Binding of maternal HIV+ serum to peptide (sera/NHS ratio) (Serum No. 10, Transmission Group): - (specific OD450 or cpm of sera sample binding to peptide divided by the specific OD450 or cpm of NHS sample binding to peptide, which value is less than 2) | Binding of maternal HIV+ serum to peptide (sera/NHS ratio) (Serum No. 11, Non-Transmission Group): - (specific OD450 or cpm of sera sample binding to peptide divided by the specific OD450 or cpm of NHS sample binding to peptide, which value is less than 2) | Binding of maternal HIV+ serum to peptide (sera/NHS ratio) (Serum No. 12, Non-Transmission Group): - (specific OD450 or cpm of sera sample binding to peptide divided by the specific OD450 or cpm of NHS sample binding to peptide, which value is less than 2) | Binding of maternal HIV+ serum to peptide (sera/NHS ratio) (Serum No. 13, Transmission Group): - (specific OD450 or cpm of sera sample binding to peptide divided by the specific OD450 or cpm of NHS sample binding to peptide, which value is less than 2) | Binding of maternal HIV+ serum to peptide (sera/NHS ratio) (Serum No. 14, Transmission Group): - (specific OD450 or cpm of sera sample binding to peptide divided by the specific OD450 or cpm of NHS sample binding to peptide, which value is less than 2) | Binding of maternal HIV+ serum to peptide (sera/NHS ratio) (Serum No. 15, Transmission Group): - (specific OD450 or cpm of sera sample binding to peptide divided by the specific OD450 or cpm of NHS sample binding to peptide, which value is less than 2) | Binding of maternal HIV+ serum to peptide (sera/NHS ratio) (Serum No. 16, Non-Transmission Group): - (specific OD450 or cpm of sera sample binding to peptide divided by the specific OD450 or cpm of NHS sample binding to peptide, which value is less than 2) | Binding of maternal HIV+ serum to peptide (sera/NHS ratio) (Serum No. 17, Non-Transmission Group): - (specific OD450 or cpm of sera sample binding to peptide divided by the specific OD450 or cpm of NHS sample binding to peptide, which value is less than 2) | Binding of maternal HIV+ serum to peptide (sera/NHS ratio) (Serum No. 18, Non-Transmission Group): - (specific OD450 or cpm of sera sample binding to peptide divided by the specific OD450 or cpm of NHS sample binding to peptide, which value is less than 2) | Binding of maternal HIV+ serum to peptide (sera/NHS ratio) (Serum No. 19, Transmission Group): - (specific OD450 or cpm of sera sample binding to peptide divided by the specific OD450 or cpm of NHS sample binding to peptide, which value is less than 2) | Binding of maternal HIV+ serum to peptide (sera/NHS ratio) (Serum No. 20, Non-Transmission Group): - (specific OD450 or cpm of sera sample binding to peptide divided by the specific OD450 or cpm of NHS sample binding to peptide, which value is less than 2)
